These results are taken from ChEMBL document CHEMBL1697781, “Assessment of the health effects of chemicals in humans: II. Construction of an adverse effects database for QSAR modeling” (Curr Drug Discov Technol, 2004).

SMILES strings stand for the structures. Bounds are passed on as bounds.

Holding throughout (details): human
In data set [1] the test system is Hepatotoxicity. Briefly: FDA HLAED, liver enzyme composite activity.
The test system of data set [2] is Hepatotoxicity. Nature of the data set: FDA HLAED, alkaline phosphatase increase.
The test system of data set [3] is Hepatotoxicity. Briefly: FDA HLAED, serum glutamic oxaloacetic transaminase (SGOT) increase.
Data set [4] relates to Hepatotoxicity. Nature of the data set: FDA HLAED, serum glutamic pyruvic transaminase (SGPT) increase.
The test system of data set [5] is Hepatotoxicity. Nature of the data set: FDA HLAED, lactate dehydrogenase (LDH) increase.
Data set [6] has as its system Hepatotoxicity. Nature of the data set: FDA HLAED, gamma-glutamyl transferase (GGT) increase.
For GGT Increase - Index Value in this document: reference of the scale not given here.
For LDH Increase - Index Value in this document: reference of the scale not given here.

As for `FC(F)OC(Cl)C(F)(F)F` (configuration not stated) [ISOFLURANE], in the data set with Hepatotoxicity [1], the “Composite Activity - Active” value was 0, the “Composite Activity - Marginal” value came to 0 and the “Composite Activity - Score” value is listed as “Inactive”. Moreover, in the data set with Hepatotoxicity [2], the “Alkaline Phosphatase Increase - Activity Score” value was “Inactive”, the “Alkaline Phosphatase Increase - Index Value” is reported as 0.6 and the “Alkaline Phosphatase Increase - Number of Reports” value is recorded as less than 4. For the same compound, in the data set with Hepatotoxicity [3], the “SGOT Increase - Activity Score” value is reported as “Inactive”, the “SGOT Increase - Index Value” came out at 1 and the “SGOT Increase - Number of Reports” value is reported as “>= 4”. Also, in the data set with Hepatotoxicity [4], the “SGPT Increase - Activity Score” value is “Inactive”, the “SGPT Increase - Index Value” is 0.4 and the “SGPT Increase - Number of Reports” value was less than 4. Also, in the data set with Hepatotoxicity [5], the “LDH Increase - Activity Score” value was “Inactive”, the “LDH Increase - Index Value” was found to be 0 and the “LDH Increase - Number of Reports” value was less than 4. Besides, in the data set on Hepatotoxicity [6], the “GGT Increase - Activity Score” value is on record as “Inactive”, the “GGT Increase - Index Value” is 0 and the “GGT Increase - Number of Reports” value was less than 4.

As to `NNC(=O)c1ccncc1` [ISONIAZID], in the data set with Hepatotoxicity [1], the “Composite Activity - Active” value stood at 5, the “Composite Activity - Marginal” value is listed as 0 and the “Composite Activity - Score” value is recorded as “Active”. For the same compound, in the data set on Hepatotoxicity [2], the “Alkaline Phosphatase Increase - Activity Score” value is listed as “Active”, the “Alkaline Phosphatase Increase - Index Value” is reported as 12.7 and the “Alkaline Phosphatase Increase - Number of Reports” value is recorded as “>= 4”. In the data set with Hepatotoxicity [3], the “SGOT Increase - Activity Score” value is “Active”, the “SGOT Increase - Index Value” worked out at 38.7 and the “SGOT Increase - Number of Reports” value is reported as “>= 4”. Further, in the data set with Hepatotoxicity [4], the “SGPT Increase - Activity Score” value is “Active”, the “SGPT Increase - Index Value” is 34.7 and the “SGPT Increase - Number of Reports” value is on record as “>= 4”. In the data set on Hepatotoxicity [5], the “LDH Increase - Activity Score” value was “Active”, the “LDH Increase - Index Value” was found to be 10 and the “LDH Increase - Number of Reports” value was “>= 4”. Further, in the data set with Hepatotoxicity [6], the “GGT Increase - Activity Score” value is reported as “Active”, the “GGT Increase - Index Value” is listed as 8 and the “GGT Increase - Number of Reports” value was “>= 4”.

On to `O=[N+]([O-])O[C@@H]1CO[C@H]2[C@@H]1OC[C@@H]2O` [ISOSORBIDE MONONITRATE], for which, in the data set on Hepatotoxicity [1], the “Composite Activity - Active” value is reported as 0, the “Composite Activity - Marginal” value is 0 and the “Composite Activity - Score” value is on record as “Inactive”. Further, in the data set with Hepatotoxicity [2], the “Alkaline Phosphatase Increase - Activity Score” value is “Inactive”, the “Alkaline Phosphatase Increase - Index Value” worked out at 0 and the “Alkaline Phosphatase Increase - Number of Reports” value was less than 4. Also, in the data set on Hepatotoxicity [3], the “SGOT Increase - Activity Score” value is “Inactive”, the “SGOT Increase - Index Value” was 0.2 and the “SGOT Increase - Number of Reports” value is recorded as less than 4. Also, in the data set on Hepatotoxicity [4], the “SGPT Increase - Activity Score” value is on record as “Inactive”, the “SGPT Increase - Index Value” is on record as 0.5 and the “SGPT Increase - Number of Reports” value is given as less than 4. Besides, in the data set on Hepatotoxicity [5], the “LDH Increase - Activity Score” value is “Inactive”, the “LDH Increase - Index Value” stood at 0.2 and the “LDH Increase - Number of Reports” value is given as less than 4. Besides, in the data set with Hepatotoxicity [6], the “GGT Increase - Activity Score” value is reported as “Inactive”, the “GGT Increase - Index Value” is given as 0 and the “GGT Increase - Number of Reports” value was less than 4.

Take `CC1=C(/C=C/C(C)=C/C=C/C(C)=C\C(=O)O)C(C)(C)CCC1` [ISOTRETINOIN]: in the data set on Hepatotoxicity [1], the “Composite Activity - Active” value came to 4, the “Composite Activity - Marginal” value is 0 and the “Composite Activity - Score” value is given as “Active”. Further, in the data set on Hepatotoxicity [2], the “Alkaline Phosphatase Increase - Activity Score” value is “Active”, the “Alkaline Phosphatase Increase - Index Value” turned out to be 45.7 and the “Alkaline Phosphatase Increase - Number of Reports” value is given as “>= 4”. In addition, in the data set on Hepatotoxicity [3], the “SGOT Increase - Activity Score” value was “Active”, the “SGOT Increase - Index Value” turned out to be 98.4 and the “SGOT Increase - Number of Reports” value is “>= 4”. Further, in the data set with Hepatotoxicity [4], the “SGPT Increase - Activity Score” value was “Active”, the “SGPT Increase - Index Value” worked out at 63.7 and the “SGPT Increase - Number of Reports” value is “>= 4”. In the data set on Hepatotoxicity [5], the “LDH Increase - Activity Score” value was “Active”, the “LDH Increase - Index Value” was found to be 54 and the “LDH Increase - Number of Reports” value is given as “>= 4”. Further, in the data set on Hepatotoxicity [6], the “GGT Increase - Activity Score” value is on record as “Inactive”, the “GGT Increase - Index Value” turned out to be 0 and the “GGT Increase - Number of Reports” value is on record as less than 4.

For the compound `COC(=O)C1=C(C)NC(C)=C(C(=O)OC(C)C)C1c1cccc2nonc12` (configuration not stated) [ISRADIPINE], in the data set with Hepatotoxicity [1], the “Composite Activity - Active” value is reported as 0, the “Composite Activity - Marginal” value is 0 and the “Composite Activity - Score” value is recorded as “Inactive”. Besides, in the data set on Hepatotoxicity [2], the “Alkaline Phosphatase Increase - Activity Score” value is on record as “Inactive”, the “Alkaline Phosphatase Increase - Index Value” turned out to be 0.5 and the “Alkaline Phosphatase Increase - Number of Reports” value was less than 4. Further, in the data set with Hepatotoxicity [3], the “SGOT Increase - Activity Score” value is reported as “Inactive”, the “SGOT Increase - Index Value” came to 0.8 and the “SGOT Increase - Number of Reports” value was “>= 4”. In the data set on Hepatotoxicity [4], the “SGPT Increase - Activity Score” value is given as “Inactive”, the “SGPT Increase - Index Value” was determined as 0.7 and the “SGPT Increase - Number of Reports” value is “>= 4”. Moreover, in the data set on Hepatotoxicity [5], the “LDH Increase - Activity Score” value is listed as “Inactive”, the “LDH Increase - Index Value” came to 0.3 and the “LDH Increase - Number of Reports” value is less than 4. Besides, in the data set on Hepatotoxicity [6], the “GGT Increase - Activity Score” value is recorded as “Inactive”, the “GGT Increase - Index Value” is reported as 0.2 and the “GGT Increase - Number of Reports” value is less than 4.

As to `CCC(C)n1ncn(-c2ccc(N3CCN(c4ccc(OCC5COC(Cn6cncn6)(c6ccc(Cl)cc6Cl)O5)cc4)CC3)cc2)c1=O` (configuration not stated) [ITRACONAZOLE], in the data set with Hepatotoxicity [1], the “Composite Activity - Active” value amounted to 5, the “Composite Activity - Marginal” value is recorded as 0 and the “Composite Activity - Score” value was “Active”. In the data set on Hepatotoxicity [2], the “Alkaline Phosphatase Increase - Activity Score” value was “Active”, the “Alkaline Phosphatase Increase - Index Value” came out at 12.4 and the “Alkaline Phosphatase Increase - Number of Reports” value is listed as “>= 4”. Moreover, in the data set on Hepatotoxicity [3], the “SGOT Increase - Activity Score” value is given as “Active”, the “SGOT Increase - Index Value” is on record as 19.6 and the “SGOT Increase - Number of Reports” value is “>= 4”. Moreover, in the data set with Hepatotoxicity [4], the “SGPT Increase - Activity Score” value was “Active”, the “SGPT Increase - Index Value” amounted to 19.8 and the “SGPT Increase - Number of Reports” value is recorded as “>= 4”. In addition, in the data set on Hepatotoxicity [5], the “LDH Increase - Activity Score” value is on record as “Active”, the “LDH Increase - Index Value” is 5.8 and the “LDH Increase - Number of Reports” value is “>= 4”. Further, in the data set on Hepatotoxicity [6], the “GGT Increase - Activity Score” value is “Active”, the “GGT Increase - Index Value” was found to be 14.1 and the “GGT Increase - Number of Reports” value is recorded as “>= 4”.

For `CC(=O)N1CCN(c2ccc(OCC3COC(Cn4ccnc4)(c4ccc(Cl)cc4Cl)O3)cc2)CC1` (configuration not stated) [KETOCONAZOLE], in the data set on Hepatotoxicity [1], the “Composite Activity - Active” value came out at 3, the “Composite Activity - Marginal” value is recorded as 0 and the “Composite Activity - Score” value is on record as “Active”. Also, in the data set on Hepatotoxicity [2], the “Alkaline Phosphatase Increase - Activity Score” value is listed as “Active”, the “Alkaline Phosphatase Increase - Index Value” worked out at 5.4 and the “Alkaline Phosphatase Increase - Number of Reports” value is “>= 4”. For the same compound, in the data set with Hepatotoxicity [3], the “SGOT Increase - Activity Score” value is listed as “Active”, the “SGOT Increase - Index Value” turned out to be 14.7 and the “SGOT Increase - Number of Reports” value was “>= 4”. For the same compound, in the data set on Hepatotoxicity [4], the “SGPT Increase - Activity Score” value is recorded as “Active”, the “SGPT Increase - Index Value” is listed as 10.7 and the “SGPT Increase - Number of Reports” value was “>= 4”. In the data set on Hepatotoxicity [5], the “LDH Increase - Activity Score” value is “Inactive”, the “LDH Increase - Index Value” is listed as 2.7 and the “LDH Increase - Number of Reports” value is listed as less than 4. Besides, in the data set with Hepatotoxicity [6], the “GGT Increase - Activity Score” value is reported as “Inactive”, the “GGT Increase - Index Value” is given as 0 and the “GGT Increase - Number of Reports” value is given as less than 4.

For `CC(C(=O)O)c1cccc(C(=O)c2ccccc2)c1` (configuration not stated) [KETOPROFEN], in the data set on Hepatotoxicity [1], the “Composite Activity - Active” value amounted to 0, the “Composite Activity - Marginal” value is on record as 0 and the “Composite Activity - Score” value is “Inactive”. Moreover, in the data set on Hepatotoxicity [2], the “Alkaline Phosphatase Increase - Activity Score” value is “Inactive”, the “Alkaline Phosphatase Increase - Index Value” is 0.6 and the “Alkaline Phosphatase Increase - Number of Reports” value was less than 4. Also, in the data set on Hepatotoxicity [3], the “SGOT Increase - Activity Score” value is “Inactive”, the “SGOT Increase - Index Value” was 0.6 and the “SGOT Increase - Number of Reports” value is less than 4. In addition, in the data set on Hepatotoxicity [4], the “SGPT Increase - Activity Score” value is “Inactive”, the “SGPT Increase - Index Value” was determined as 0.4 and the “SGPT Increase - Number of Reports” value was less than 4. In addition, in the data set with Hepatotoxicity [5], the “LDH Increase - Activity Score” value is given as “Inactive”, the “LDH Increase - Index Value” was determined as 0.4 and the “LDH Increase - Number of Reports” value is on record as less than 4. In the data set on Hepatotoxicity [6], the “GGT Increase - Activity Score” value is reported as “Inactive”, the “GGT Increase - Index Value” was found to be 0 and the “GGT Increase - Number of Reports” value was less than 4.

Consider `O=C(c1ccccc1)c1ccc2n1CCC2C(=O)O` (configuration not stated) [KETOROLAC], for which, in the data set on Hepatotoxicity [1], the “Composite Activity - Active” value came out at 0, the “Composite Activity - Marginal” value is given as 0 and the “Composite Activity - Score” value was “Inactive”. Moreover, in the data set with Hepatotoxicity [2], the “Alkaline Phosphatase Increase - Activity Score” value was “Inactive”, the “Alkaline Phosphatase Increase - Index Value” came out at 1.4 and the “Alkaline Phosphatase Increase - Number of Reports” value is recorded as “>= 4”. In the data set on Hepatotoxicity [3], the “SGOT Increase - Activity Score” value is reported as “Inactive”, the “SGOT Increase - Index Value” was determined as 0.9 and the “SGOT Increase - Number of Reports” value is on record as “>= 4”. Moreover, in the data set with Hepatotoxicity [4], the “SGPT Increase - Activity Score” value is “Inactive”, the “SGPT Increase - Index Value” came out at 0.6 and the “SGPT Increase - Number of Reports” value is recorded as “>= 4”. For the same compound, in the data set on Hepatotoxicity [5], the “LDH Increase - Activity Score” value was “Inactive”, the “LDH Increase - Index Value” turned out to be 0.5 and the “LDH Increase - Number of Reports” value was “>= 4”. In the data set with Hepatotoxicity [6], the “GGT Increase - Activity Score” value is “Inactive”, the “GGT Increase - Index Value” is given as 0.5 and the “GGT Increase - Number of Reports” value was less than 4.
